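Five compound concentrations were applied to cells in 96-well plates for 48 hours; endpoints were derived by simple linear interpolation of the resulting dose-response curve. TGI denotes the concentration required for complete inhibition of growth.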
Columns and labels:
Experiment in all cases: DTP human tumour cell line panel, 48 h
NCI-H226 lung = tested on: NCI-H226 lung
SF-539 CNS = tested on: SF-539 CNS
NCI-H23 lung = tested on: NCI-H23 lung
HOP-62 NSCLC = tested on: HOP-62 NSCLC
LOX IMVI melanoma = tested on: LOX IMVI melanoma
UACC-257 melanoma = tested on: UACC-257 melanoma
SW-620 colon = tested on: SW-620 colon
SF-295 CNS = tested on: SF-295 CNS
U251 CNS = tested on: U251 CNS
HT29 colon = tested on: HT29 colon
HCT-116 colon = tested on: HCT-116 colon
SK-MEL-2 melanoma = tested on: SK-MEL-2 melanoma
SNB-75 CNS = tested on: SNB-75 CNS
OVCAR-5 ovarian = tested on: OVCAR-5 ovarian
HCT-15 colon = tested on: HCT-15 colon
SK-MEL-28 melanoma = tested on: SK-MEL-28 melanoma
MOLT-4 leukemia = tested on: MOLT-4 leukemia
HL-60(TB) leukemia = tested on: HL-60(TB) leukemia
NCI-H460 lung = tested on: NCI-H460 lung
KM12 colon = tested on: KM12 colon

Compound | TGI (NCI-H226 lung) [µM] | TGI (SF-539 CNS) [µM] | TGI (NCI-H23 lung) [µM] | TGI (HOP-62 NSCLC) [µM] | TGI (LOX IMVI melanoma) [µM] | TGI (UACC-257 melanoma) [µM] | TGI (SW-620 colon) [µM] | TGI (SF-295 CNS) [µM] | TGI (U251 CNS) [µM] | TGI (HT29 colon) [µM] | TGI (HCT-116 colon) [µM] | TGI (SK-MEL-2 melanoma) [µM] | TGI (SNB-75 CNS) [µM] | TGI (OVCAR-5 ovarian) [µM] | TGI (HCT-15 colon) [µM] | TGI (SK-MEL-28 melanoma) [µM] | TGI (MOLT-4 leukemia) [µM] | TGI (HL-60(TB) leukemia) [µM] | TGI (NCI-H460 lung) [µM] | TGI (KM12 colon) [µM]
Cc1ccc2c(c1)C(=O)N(N(C)C)CC(=O)N2 | > 100 | > 100 | > 100 | > 100 | > 100 | > 100 | > 100 | > 100 | > 100 | > 100 | > 100 | > 100 | > 100 | > 100 | > 100 | > 100 | > 100 | > 100 | > 100 | > 100
c1coc(CNc2ncnc3[nH]ncc23)c1 | > 100 | > 100 | > 100 | > 100 | > 100 | > 100 | > 100 | > 100 | > 100 | > 100 | > 100 | > 100 | > 100 | > 100 | > 100 | > 100 | > 100 | > 100 | > 100 | > 100
N#CN=[N+]([O-])c1ccc(C(=O)O)cc1 | 40.9 | 32.4 | 33.7 | 30.7 |  | 32.7 | 36.6 | > 100 | 33 | 46.3 |  | 33.6 | 38.9 | 34.7 | 34.1 | 33.4 |  |  | > 100 | > 100
CSc1nc(NC2OCC(O)C(O)C2O)c(N)c(=O)[nH]1 (centres undefined) | > 100 | > 100 | > 100 | > 100 | > 100 | > 100 | > 100 | > 100 | > 100 | > 100 | > 100 | > 100 | > 100 | > 100 | > 100 | > 100 | > 100 | > 100 | > 100 | > 100
CCOC(=O)NC(Nc1ncccn1)(C(=O)OCC)C(F)(F)F (centres undefined) |  | > 100 | > 100 |  | > 100 | > 100 | > 100 | > 100 | > 100 | > 100 | > 100 | > 100 | > 100 | > 100 | > 100 | > 100 | > 100 | > 100 | > 100 | > 100
CCN(CC)CCNc1ccc2nnn3c4ccc(C)cc4c(=O)c1c23 | 23.9 | 18.7 | 24.7 | 28.9 | 14.8 | 26.5 | 17.2 | 18 | 24.7 | 16.1 | 15 | 27.1 | 23.2 | 21.4 | 22.4 | 28.9 | 12.2 | 16.8 | 13.9 | 16.9
CC(=O)OCC1=C(C(=O)O)N2C(=O)C(NC(=O)CSc3ccncc3)C2SC1 (centres undefined) | > 100 | > 100 | > 100 | > 100 | > 100 | > 100 | > 100 | > 100 | > 100 | > 100 | > 100 | > 100 | > 100 | > 100 | > 100 | > 100 | > 100 | > 100 | > 100 | > 100

Reference: PubChem BioAssay (NCI)
